Like-named read-outs stand apart in the source and are kept apart here.
Tests used:
[1] = molecular target: human CB2 receptors; parameters: method as in PMID 28861508; details: reference standard contaminated with 2% Δ9-THC; read-out: approximate Ki at human CB2; cited from earlier work
[2] = molecular target: T1, CB2 receptor (Homo sapiens, UniProt P34972); assay: cAMP assay (HitHunter) in CHO-K1-CB2 cells, agonist and antagonist modes; format: cell-based; details: for EC50 / CB2 Efficacy (%): agonist or antagonist mode; for EC50: antagonist mode against CP-55940 at EC90; for CB2 Mode of action: CHO-K1-CB2 cells, forskolin 20 μM, NA = no activity; for CB2 Efficacy (%): percentage of the response to CP-55940
T1 construct: host or cells: CHO-K1-CB2
T1 sequence (P34972 whole entry): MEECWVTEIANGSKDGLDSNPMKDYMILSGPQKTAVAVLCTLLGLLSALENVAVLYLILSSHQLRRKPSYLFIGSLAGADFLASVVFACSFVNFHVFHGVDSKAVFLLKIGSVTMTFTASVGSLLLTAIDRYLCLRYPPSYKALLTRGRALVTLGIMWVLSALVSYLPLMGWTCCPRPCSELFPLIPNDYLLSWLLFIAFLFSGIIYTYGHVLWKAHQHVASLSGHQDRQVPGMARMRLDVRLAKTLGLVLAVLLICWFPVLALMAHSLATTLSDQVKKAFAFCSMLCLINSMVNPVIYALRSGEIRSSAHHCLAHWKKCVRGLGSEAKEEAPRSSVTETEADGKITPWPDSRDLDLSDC

[3] = molecular target: T2, CB1 receptor (Homo sapiens, UniProt P21554); assay: cell-based; format: cell-based
T2 construct: host or cells: CHO-K1-CB1
T2 sequence (P21554 whole entry): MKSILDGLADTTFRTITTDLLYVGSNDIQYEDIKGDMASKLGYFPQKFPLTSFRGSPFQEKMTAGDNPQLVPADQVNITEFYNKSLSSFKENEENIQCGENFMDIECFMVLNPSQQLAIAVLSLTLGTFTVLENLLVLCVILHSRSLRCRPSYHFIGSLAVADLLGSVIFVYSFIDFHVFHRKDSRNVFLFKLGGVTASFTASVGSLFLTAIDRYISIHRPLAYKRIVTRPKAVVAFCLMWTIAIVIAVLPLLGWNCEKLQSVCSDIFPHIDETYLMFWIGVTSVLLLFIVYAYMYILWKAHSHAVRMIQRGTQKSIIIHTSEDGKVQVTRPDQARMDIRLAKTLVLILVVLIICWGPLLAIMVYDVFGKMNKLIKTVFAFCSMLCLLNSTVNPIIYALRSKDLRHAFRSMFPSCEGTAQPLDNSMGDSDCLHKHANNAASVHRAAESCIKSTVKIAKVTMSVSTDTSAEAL

[4] = molecular target: human CB1; parameters: method as in PMID 28861508; details: reference standard contaminated with 2% Δ9-THC; read-out: approximate Ki at human CB1; cited from earlier work
[5] = percentage of the response to CP-55940, agonist or antagonist mode

Row | Compound | Ki [1] | EC50 ([2]; CB2 EC50 (μM)) | CB2 Mode of action [2] | CB2 Efficacy (%) [2] | CB1 Efficacy (%) [3] | CB1 Mode of action [3] | EC50 [3] | Ki [4] | CB1 Mode of action ([3]; CHO-K1-CB1 cells, forskolin 20 μM, NA = no activity) | CB1 Efficacy (%) [3, 5] | EC50 ([2]; read-out: CB2 EC50) | fold weaker than CBD at CB2 receptor as an antagonist ([2]; comparison of EC50 values)
1 | CCCCCc1cc2c(c(O)c1C(=O)O)[C@@H]1C=C(C)CC[C@H]1C(C)(C)O2 [Δ^9-THCA, Δ^9-tetrahydrocannabinolic acid] | ~12.5 µM | 30 ± 15 µM | Weak agonist | 100% | 100% | Weak agonist | 1.8 ± 0.7 µM | ~3.1 µM | – | – | – | –
2 | CCCCCc1cc(O)c2c(c1)OC(C)(C)[C@@H]1CCC(C)=C[C@@H]21 [Δ^9-THC, Δ^9-tetrahydrocannabinol] | – | – | Weak partial agonist | 20% | – | – | – | – | – | – | – | –
3 | C=C(C)[C@@H]1CCC(C)=C[C@H]1c1c(O)cc(CCCCC)cc1O [CBD, cannabidiol, reference compound] | – | – | Antagonist | 100% | – | – | – | – | Antagonist | 40% | – | –
4 | C=C(C)[C@@H]1CCC(C)=C[C@H]1c1c(O)cc(CCCCC)c(C(=O)O)c1O [CBDA, cannabidiolic acid] | – | – | – | −23% | – | – | > 10 µM | – | – | 0% | > 100 µM | more than 10 fold
5 | COc1ccc(C(=O)c2c(C)n(CCN3CCOCC3)c3cc(I)ccc23)cc1 [AM-630] | – | – | Antagonist | 100% | – | – | – | – | – | – | 0.146 ± 0.084 µM | –
6 | CCCCCCC(C)(C)c1ccc([C@@H]2C[C@H](O)CC[C@H]2CCCO)c(O)c1 [CP-55940, reference compound] | – | – | Agonist | 100% | 100% | Agonist | – | – | – | – | – | –

Source: PMC6757234, “Extractions of Medical Cannabis Cultivars and the Role of Decarboxylation in Optimal Receptor Responses” (Cannabis and Cannabinoid Research, 2019)
